# Like-named read-outs stand apart in the source and are kept apart here.
# Legend:
# [1] = target: T1, human 5-hydroxytryptamine2C (h5HT2C) receptor (Homo sapiens, UniProt P28335); test: 5HT2C receptor binding test procedure ([125I]DOI displacement, CHO cell membranes)
# T1 sequence (P28335 33-458): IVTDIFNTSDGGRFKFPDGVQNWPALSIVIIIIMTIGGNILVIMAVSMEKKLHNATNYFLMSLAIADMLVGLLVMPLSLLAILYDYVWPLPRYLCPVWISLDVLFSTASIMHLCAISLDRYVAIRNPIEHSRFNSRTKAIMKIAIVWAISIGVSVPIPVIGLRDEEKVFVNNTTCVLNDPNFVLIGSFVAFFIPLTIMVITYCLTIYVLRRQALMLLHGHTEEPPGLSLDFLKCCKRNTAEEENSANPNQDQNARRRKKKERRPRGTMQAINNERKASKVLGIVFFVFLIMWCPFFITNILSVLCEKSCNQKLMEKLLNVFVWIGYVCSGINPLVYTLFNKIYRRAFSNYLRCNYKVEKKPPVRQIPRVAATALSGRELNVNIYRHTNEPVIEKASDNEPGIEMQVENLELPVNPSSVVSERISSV
# male Sprague-Dawley rats = test: Effects of compounds on feeding behavior in rats (24 hr fast, 2 hour food intake); assay type: in vivo, rat; details: ip, dose giving 50% reduction in food intake
# Experimental: Effects of Compounds on Feeding Behavior in Rats
# Eight (8) male Sprague-Dawley rats weighing 150-180 g were separated into individual cages and acclimated to a powdered diet for 2 weeks. During this period and throughout the test procedure, the food cup and the animals were weighed daily. Following the acclimation period, animals were fasted for 24 hours and then injected with either vehicle or one of 4 doses of the test compound. Food intake was assessed at 2 and 24 hours following compound administration. Compounds to be evaluated were injected 1-2× per week until all animals had received all doses of the test compound. The order of doses were chosen using to a modified Latin Square design. Additional studies may be conducted in satieted rats at the start of the dark cycle. Compounds were injected i.p, s.c. or p.o. At the end of the study effects of the test compound on food intake was evaluated using a repeated measures ANOVA. Data were collected were 2 hour food intake (g). Data were subjected to one-way ANOVA with posthoc t-tests to assess group differences. Where appropriate, ED50 values were calculated.
# human 5-HT2C receptor = target: T2, human 5-HT2C receptor (Homo sapiens, UniProt P28335); test: Stimulation of [3H] inositol monophosphate production by 5HT2C agonists in transfected CHO cells; assay type: cell-based; details: read-out: 5HT2C % Emax (5HT, 100%)
# T2 construct: expressed in transfected cells; host or cells: CHO cells
# T2 sequence (P28335 33-458): T1 sequence (P28335 33-458)
# Experimental: One (1) ml of maintenance medium containing 1 μCi/ml myo-[^3H] inositol was added to each well. After 48 hours labeling, the cells were washed once with 0.5 ml DMEM containing 25 mM HEPES and 10 mM LiCl, then preincubated with the medium for 30 min (antagonists were included in this period if tested). At the end of the preincubation, the medium was removed, the cells were then incubated with test compounds (in presence of antagonists if needed) for 30 min. The reaction was terminated by removal of the incubation solution and addition of 0.5 ml ice-cold 5% PCA, followed by 15 to 30 min incubation on ice. 200 μl of 0.5 M Tes/1.5 M K2CO3 was added to each well to neutralize to pH 7, and plates were left on ice for another 15 to 30 min to precipitate all salts. The liquid and solid phases were separated by centrifugation.
# A portion (350 μl) of the upper aqueous phase was applied to Dowex AG-1X8 (formate form, 100-200 mesh) columns. The columns were then washed stepwise with 10 ml of water and 10 ml of 25 mM ammonium formate to remove free myo-[^3H]inositol and deacylated phosphoinositol, respectively. Finally 10 ml of 0.2 M ammonium formate solution was applied to the columns to elute [^3H] inositol monophosphate ([^3H] IP1) directly into scintillationvials.
# A 3-parameter logistic function is used to generate estimate of EC50/IC50.
# [2] = rat; Martin et al. 1989; cited from earlier work
# [3] = several animal species and humans; Cowen et al. 1995; cited from earlier work
# [4] = 5-HT2C Affinity DOI/Agonist Binding (Ki, μM), [125I]DOI agonist binding
compound,measurement,setting,value
"C[C@@H]1NCCN2c3c1cccc3[C@@H]1CCC[C@@H]12 (relative stereo) [Example 12, rel-(4S,7bS,10aS)-4-Methyl-1,2,3,4,8,9,10,10a-Octahydro-7bH-Cyclopenta[b][1,4]Diazepino[6,7,1-hi]Indole]",Ki,[1]; [4],> 5 µM
"C[C@H]1NCCN2c3c1cccc3[C@@H]1CCC[C@@H]12 (relative stereo) [Example 13, rel-(4R,7bS,10aS)-4-Methyl-1,2,3,4,8,9,10,10a-Octahydro-7bH-Cyclopenta[b][1,4]Diazepino[6,7,1-hi]Indole]",Ki,[1]; [4],0.31 µM
"CC1CN2c3c(cccc3C3CCCC32)CN1 (single isomer, unassigned) [Example 7]",Ki,[1]; [4],6 µM
"CC1CN2c3c(cccc3C3CCCC32)CN1 (single isomer, unassigned) [Example 8]",Ki,[1]; [4],5.9 µM
"CC1CN2c3c(cccc3C3CCCC32)CN1 (single isomer, unassigned) [Example 9]",Ki,[1]; [4],0.91 µM
"CC1CN2c3c(cccc3C3CCCC32)CN1 (single isomer, unassigned) [Example 10]",Ki,[1]; [4],4.3 µM
"OC[C@H]1CN2c3c(cccc3C3CCCC32)CN1 (single isomer, unassigned) [Example 11]",Ki,[1]; [4],1.9 µM
"c1cc2c3c(c1)c1c(n3CCNC2)CCC1 [Example 1, 1,2,3,4,9,10-Hexahydro-8H-cyclopenta[b][1,4]diazepino[6,7,1-hi]indole]",melting point,,66 to 68 °C
"c1cc2c3c(c1)C1CCCC1N3CCNC2 (stereo not drawn) [Example 2, 1,2,3,4,8,9,10,10a-octahydro-7bH-cyclopenta[b][1,4]diazepino[6,7,1-hi]indole]",ED50,"male Sprague-Dawley rats; Rattus norvegicus, read-out: ED50",8.05 mg/kg
same,Emax,human 5-HT2C receptor,110%
"c1cc2c3c(c1)[C@@H]1CCC[C@@H]1N3CCNC2 [Example 4A, (7bS,10aS)-1,2,3,4,8,9,10,10a-octahydro-7bH-cyclopenta-[b][1,4]diazepino-[6,7,1-hi]indole]",Emax,human 5-HT2C receptor,40%
"c1cc2c3c(c1)[C@H]1CCC[C@H]1N3CCNC2 [Example 4B, 7bR,10aR)-1,2,3,4,8,9,10,10a-octahydro-7bH-cyclopenta-[b][1,4]diazepino[6,7,1-hi]indole]",ED50,male Sprague-Dawley rats,2.93 mg/kg
"Cc1cc2c3c(c1)c1c(n3CCNC2)CCC1 [Example 6, 6-Methyl-1,2,3,4,9,10-hexahydro-8H-cyclopenta[b][1,4]diazepino[6,7,1-hi]indole]",Ki,"[1]; read-out: 5HT2C Affinity DOI/Agonist binding (Ki), [125I]DOI agonist binding",0.985 µM
same,melting point,,168 to 170 °C
"CSc1ccc2c(c1)C(N1CCN(C)CC1)Cc1ccccc1S2 (stereo not drawn) [Methiothepin, reference compound]",Ki,"[1]; reference compounds, [125I]DOI binding, h5HT2C in CHO membranes, read-out: Ki value and 95% confidence interval",0.0046 µM
"COc1cc(CC(C)N)c(OC)cc1I (stereo not drawn) [[^125I] DOI, reference compound]",Kd,"[1]; read-out: dissociation constant, KD of [125I] DOI at the human serotonin 5HT2C receptor, saturation binding with increasing concentrations of [125I] DOI",0.4 nM
"Clc1cccc(N2CCNCC2)c1 [mCPP, meta-chlorophenylpiperazine]",effect on conditioned avoidance responding (CAR),[2],block conditioned avoidance responding
same,effect on food intake,[3],decreases food intake

# From patent US20080009480A1, “CYCLOPENTA[b][1,4]DIAZEPINO[6,7,1-hi]INDOLES AND DERIVATIVES” (Wyeth, priority 2000, published 2008)
